18 molecules from US9580390B2, “Indazole compounds as kinase inhibitors and method of treating cancer with same” (University Health Network, priority 2011, dated 2017) can be followed below.

Molecules are shown by their SMILES. Like-named read-outs stand apart in the source and are kept apart here.

For assay [1], the system named is colon cancer cells (HCT116). Nature of the assay: Cancer cell line growth inhibition (SRB assay). The class given is cell-based. As to conditions: Homo sapiens, HCT-116, read-out: Cancer Cell Line GI50 Range HCT116.
A further assay concerns TICs (Colon 12). As to the kind of experiment: Colon tumor-initiating cell growth inhibition (Alamar Blue). To be noted: 216 h, 9 days, read-out: Tumor Initiating Cell GI50 Range Colon 12. The format is cell-based.
The subject of assay [2] is ovarian cancer cells (PA-1). Nature of the assay: Cancer cell line growth inhibition (SRB assay). The class given is cell-based. To be noted: read-out: Cancer Cell Line GI50 Range PA-1.
The test system of a further assay is TICs (Ovarian 2393A). Nature of the assay: Ovarian tumor-initiating cell growth inhibition (Alamar Blue). The class given is cell-based. As to conditions: 144 h, 6 days, read-out: Tumor Initiating Cell GI50 Range Ovarain 2393A.
In the next assay the test system is Breast cancer cells. Nature of the assay: Cancer cell line growth inhibition (SRB assay). The class given is cell-based. To be noted: Homo sapiens; MDA-MB-468; read-out: Cancer Cell Line GI50 Range MDA-MB-468.
A further assay has as its target T1, human TTK (Homo sapiens, UniProt P33981).
T1 construct: amino terminal GST fusion of full length human TTK; purchased Invitrogen
T1 sequence (P33981 1-857): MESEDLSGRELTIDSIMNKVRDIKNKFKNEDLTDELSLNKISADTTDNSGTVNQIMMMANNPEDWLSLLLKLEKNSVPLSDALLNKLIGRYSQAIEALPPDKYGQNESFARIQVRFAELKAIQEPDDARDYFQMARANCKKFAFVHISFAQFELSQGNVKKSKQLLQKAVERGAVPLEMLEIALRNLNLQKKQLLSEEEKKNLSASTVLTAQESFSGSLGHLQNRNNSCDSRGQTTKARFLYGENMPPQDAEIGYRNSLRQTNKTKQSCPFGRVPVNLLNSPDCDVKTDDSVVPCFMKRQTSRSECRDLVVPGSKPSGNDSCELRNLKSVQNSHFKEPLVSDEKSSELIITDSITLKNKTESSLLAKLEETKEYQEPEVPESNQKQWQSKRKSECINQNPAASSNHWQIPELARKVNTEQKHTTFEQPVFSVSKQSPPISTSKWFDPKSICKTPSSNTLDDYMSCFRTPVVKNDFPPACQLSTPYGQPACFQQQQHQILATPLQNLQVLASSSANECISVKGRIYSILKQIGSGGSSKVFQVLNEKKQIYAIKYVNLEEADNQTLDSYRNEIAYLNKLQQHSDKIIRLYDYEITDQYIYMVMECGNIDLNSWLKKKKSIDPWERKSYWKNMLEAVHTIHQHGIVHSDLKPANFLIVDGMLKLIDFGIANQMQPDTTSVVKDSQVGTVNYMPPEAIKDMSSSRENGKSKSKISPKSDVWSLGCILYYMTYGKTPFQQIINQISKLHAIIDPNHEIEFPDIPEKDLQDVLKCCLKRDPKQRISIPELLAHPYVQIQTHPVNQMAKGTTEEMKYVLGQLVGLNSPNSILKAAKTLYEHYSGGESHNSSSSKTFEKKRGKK
As to the kind of experiment: TTK inhibition assay (indirect ELISA). To be noted: read-out: TTK IC50 Range. The format is biochemical.

Setting [3] is: HCT116 colon cancer cells, SRB assay.
The mark [4] stands for this setting: PA-1 ovarian cancer cells, SRB assay.

For the molecule `CN1CCC(Oc2ccc(-c3n[nH]c4ccc(C(=O)N[C@H](c5ccccn5)C5CC5)cc34)cc2)CC1` [Example A214, (S)-N-(cyclopropyl(pyridin-2-yl)methyl)-3-(4-((1-methylpiperidin-4-yl)oxy)phenyl)-1H-indazole-5-carboxamide], the GI50 in assay [1] is under 100 nM; with TICs (Colon 12) (Colon 12 TICs), over 500 nM; in assay [2] (Homo sapiens, PA-1), under 100 nM; with TICs (Ovarian 2393A) (Ovarian 2393A TICs), under 100 nM.

For `COCCN1CCC(Oc2ccc(-c3n[nH]c4ccc(C(=O)NC(c5ccccc5)C5CC5)cc34)cc2)CC1` (stereo not drawn) [Example A98, N-(cyclopropyl(phenyl)methyl)-3-(4-((1-(2-methoxyethyl)piperidin-4-yl)oxy)phenyl)-1H-indazole-5-carboxamide], the GI50 in assay [1] (setting [3]) is under 100 nM; in the assay with TICs (Colon 12) (colon TICs, Alamar Blue), 100 to 500 nM; in assay [2] (setting [4]), under 100 nM; in the assay with TICs (Ovarian 2393A) (ovarian TICs, Alamar Blue), 100 to 500 nM.

Turning to `CN1CCC(Oc2ccc(-c3n[nH]c4ccc(C(=O)NC(c5ccccc5)C5CCCCC5)cc34)cc2)CC1` (stereo not drawn) [Example A170, N-(cyclohexyl(phenyl)methyl)-3-(4-((1-methylpiperidin-4-yl)oxy)phenyl)-1H-indazole-5-carboxamide], the concentration for 50% growth inhibition (GI50) in assay [1] (setting [3]) is over 500 nM; in the assay on TICs (Colon 12) (colon TICs, Alamar Blue) it was over 500 nM; in assay [2] (setting [4]) it was over 500 nM; in the assay with TICs (Ovarian 2393A) (ovarian TICs, Alamar Blue) it was over 500 nM.

As for `O=C(N[C@H](c1ccccn1)C1CC1)c1ccc2[nH]nc(-c3ccc(OC4CCN(C5COC5)CC4)cc3)c2c1` [Example A197, (S)-N-(cyclopropyl(pyridin-2-yl)methyl)-3-(4-((1-(oxetan-3-yl)piperidin-4-yl)oxy)phenyl)-1H-indazole-5-carboxamide], the GI50 was under 100 nM in assay [1] (setting [3]); under 100 nM with TICs (Colon 12) (colon TICs, Alamar Blue); under 100 nM in assay [2] (setting [4]); under 100 nM with TICs (Ovarian 2393A) (ovarian TICs, Alamar Blue).

Take `O=C(NC(c1ccsc1)C1CC1)c1ccc2[nH]nc(-c3ccc(N4CCOCC4)cc3)c2c1` (stereo not drawn) [Example A35, N-(cyclopropyl(thiophen-3-yl)methyl)-3-(4-morpholinophenyl)-1H-indazole-5-carboxamide]: the GI50 is under 100 nM in assay [1] (setting [3]); over 500 nM in the assay with TICs (Colon 12) (colon TICs, Alamar Blue); 100 to 500 nM with TICs (Ovarian 2393A) (ovarian TICs, Alamar Blue).

As to `O=C(Nc1ccc2[nH]nc(-c3ccc(N4CCOCC4)cc3)c2c1)C(c1ccsc1)N1CCCC1` (stereo not drawn) [Example A4], the GI50 in assay [1] (setting [3]) is under 100 nM; in the assay with TICs (Colon 12) (colon TICs, Alamar Blue), under 100 nM; in the assay with TICs (Ovarian 2393A) (ovarian TICs, Alamar Blue) it was 100 to 500 nM.

Consider `O=CN1CCC(Oc2ccc(-c3n[nH]c4ccc(C(=O)N[C@H](c5ccccn5)C5CC5)cc34)cc2)CC1` [Example A204, (S)-N-(cyclopropyl(pyridin-2-yl)methyl)-3-(4-((1-formylpiperidin-4-yl)oxy)phenyl)-1H-indazole-5-carboxamide], for which the GI50 in assay [1] (setting [3]) is under 100 nM; in the assay on TICs (Colon 12) (colon TICs, Alamar Blue) it was under 100 nM; in assay [2] (setting [4]) it was under 100 nM; with TICs (Ovarian 2393A) (ovarian TICs, Alamar Blue), under 100 nM.

As for `O=C(NC(c1ccccc1)C1CC1)c1ccc2[nH]nc(-c3ccc(OC4CCN(C5COC5)CC4)cc3)c2c1` (stereo not drawn) [Example A157, N-(cyclopropyl(phenyl)methyl)-3-(4-((1-(oxetan-3-yl)piperidin-4-yl)oxy)phenyl)-1H-indazole-5-carboxamide], the GI50 was in the range of 100 to 500 nM in assay [1] (setting [3]); 100 to 500 nM in the assay on TICs (Colon 12) (colon TICs, Alamar Blue); 100 to 500 nM in assay [2] (setting [4]); 100 to 500 nM in the assay on TICs (Ovarian 2393A) (ovarian TICs, Alamar Blue).

In the case of `CN1CCC(Oc2ccc(-c3n[nH]c4ccc(NC(=O)C(c5ccsc5)N5CCC5)cc34)cc2)CC1` (stereo not drawn) [Example A191, 2-(azetidin-1-yl)-N-(3-(4-((1-methylpiperidin-4-yl)oxy)phenyl)-1H-indazol-5-yl)-2-(thiophen-3-yl)acetamide], the GI50 was under 100 nM in assay [1] (setting [3]); 100 to 500 nM in the assay on TICs (Colon 12) (colon TICs, Alamar Blue); under 100 nM in assay [2] (setting [4]); under 100 nM in the assay on TICs (Ovarian 2393A) (ovarian TICs, Alamar Blue).

Turning to `CN1CCC(Oc2ccc(-c3n[nH]c4ccc(C(=O)NC(c5ccccn5)C5CC5)cc34)cc2Cl)CC1` (stereo not drawn) [Example A198, 3-(3-chloro-4-((1-methylpiperidin-4-yl)oxy)phenyl)-N-(cyclopropyl(pyridin-2-yl)methyl)-1H-indazole-5-carboxamide], the 50% growth inhibitory concentration (GI50) in assay [1] (setting [3]) is under 100 nM; in the assay on TICs (Colon 12) (colon TICs, Alamar Blue) it was 100 to 500 nM; in assay [2] (setting [4]), 100 to 500 nM; in the assay on TICs (Ovarian 2393A) (ovarian TICs, Alamar Blue) it was 100 to 500 nM.

As for `CN1[C@@H]2CC[C@H]1C[C@@H](Oc1ccc(-c3n[nH]c4ccc(C(=O)N[C@H](c5ccccn5)C5CC5)cc34)cc1)C2` [Example A213, N-((S)-cyclopropyl(pyridin-2-yl)methyl)-3-(4-(((1R,3R,5S)-8-methyl-8-azabicyclo[3.2.1]octan-3-yl)oxy)phenyl)-1H-indazole-5-carboxamide], the GI50 in assay [1] is under 100 nM; with TICs (Colon 12) (Colon 12 TICs), over 500 nM; in assay [2] (Homo sapiens, PA-1) it was under 100 nM; in the assay with TICs (Ovarian 2393A) (Ovarian 2393A TICs), under 100 nM.

Regarding `CCc1cccc(CC)c1NC(=O)Nc1ccc2[nH]nc(-c3ccc(OC4CCN(C)CC4)cc3)c2c1` [Example A46, 1-(2,6-diethylphenyl)-3-(3-(4-((1-methylpiperidin-4-yl)oxy)phenyl)-1H-indazol-5-yl)urea], the GI50 is under 100 nM in assay [1] (setting [3]); over 500 nM in the assay on TICs (Colon 12) (colon TICs, Alamar Blue); 100 to 500 nM with TICs (Ovarian 2393A) (ovarian TICs, Alamar Blue).

For the molecule `CN1CCC(Oc2ccc(-c3n[nH]c4ccc(C(=O)NC(c5cccs5)C5CC5)cc34)cc2)CC1` (stereo not drawn) [Example A147, N-(cyclopropyl(thiophen-2-yl)methyl)-3-(4-((1-methylpiperidin-4-yl)oxy)phenyl)-1H-indazole-5-carboxamide], the GI50 in assay [1] (setting [3]) is under 100 nM; in the assay with TICs (Colon 12) (colon TICs, Alamar Blue), 100 to 500 nM; in assay [2] (setting [4]) it was under 100 nM; in the assay on TICs (Ovarian 2393A) (ovarian TICs, Alamar Blue), under 100 nM.

For the molecule `CN1CCC(Oc2ccc(-c3n[nH]c4ccc(C(=O)NC(c5ccsc5)C5CC5)cc34)cc2)CC1` (stereo not drawn) [Example A33, N-(cyclopropyl(thiophen-3-yl)methyl)-3-(4-((1-methylpiperidin-4-yl)oxy)phenyl)-1H-indazole-5-carboxamide], the GI50 in assay [1] (setting [3]) is under 100 nM; in the assay with TICs (Colon 12) (colon TICs, Alamar Blue) it was 100 to 500 nM; with TICs (Ovarian 2393A) (ovarian TICs, Alamar Blue) it was 100 to 500 nM.

For the molecule `O=C(NC(c1ccccc1)C1CC1)c1ccc2[nH]nc(-c3ccc(N4CCOCC4)cc3)c2c1` (stereo not drawn) [Example A12, N-(cyclopropyl(phenyl)methyl)-3-(4-morpholinophenyl)-1H-indazole-5-carboxamide], the GI50 in assay [1] (setting [3]) is under 100 nM; with TICs (Colon 12) (colon TICs, Alamar Blue), over 500 nM; in the assay with TICs (Ovarian 2393A) (ovarian TICs, Alamar Blue), 100 to 500 nM.

For the molecule `C[C@H]1CCCN1[C@H](C(=O)Nc1ccc2[nH]nc(-c3ccc(OC4CCN(C)CC4)cc3)c2c1)c1ccsc1` [Example A41, (S)-N-(3-(4-((1-methylpiperidin-4-yl)oxy)phenyl)-1H-indazol-5-yl)-2-((S)-2-methylpyrrolidin-1-yl)-2-(thiophen-3-yl)acetamide], the GI50 in assay [1] (setting [3]) was under 100 nM; in the assay with TICs (Colon 12) (colon TICs, Alamar Blue), 100 to 500 nM; with TICs (Ovarian 2393A) (ovarian TICs, Alamar Blue), under 100 nM.

With `CO[C@@H](C(=O)Nc1ccc2[nH]nc(-c3ccc(OC4CCN(C)CC4)cc3)c2c1)c1ccccc1` [Example A27, (R)-2-methoxy-N-(3-(4-((1-methylpiperidin-4-yl)oxy)phenyl)-1H-indazol-5-yl)-2-phenylacetamide], the GI50 in assay [1] (setting [3]) was under 100 nM; in the assay with TICs (Colon 12) (colon TICs, Alamar Blue), 100 to 500 nM; with TICs (Ovarian 2393A) (ovarian TICs, Alamar Blue) it was 100 to 500 nM.

In the case of `O=C(NCC1(N2CCOCC2)CCCCC1)c1ccc2[nH]nc(-c3ccc(N4[C@@H]5CC[C@H]4COC5)cc3)c2c1` [Example A501, 3-(4-((1R,5S)-3-oxa-8-azabicyclo[3.2.1]octan-8-yl)phenyl)-N-((1-morpholinocyclohexyl)methyl)-1H-indazole-5-carboxamide], the GI50 was under 100 nM with Breast cancer cells; under 100 nM in assay [1]; under 100 nM in the assay with TICs (Colon 12) (Colon 12 TICs); under 100 nM in assay [2] (Homo sapiens, PA-1). The IC50 at human TTK is under 100 nM.
